{"source": "patent US12389910B2", "about": "“Beta-lactams and their use as herbicides” (BASF SE, priority 2020, dated 2025)", "key": {"SETFA [1]": {"test_system": "SETFA", "assay": "greenhouse herbicidal activity, post-emergence treatment", "type": "in vivo, Setaria faberi", "settings": "post-emergence method, application rate 62.5 g/ha; scale 0 to 100", "text": "(§1) The culture containers used were plastic flowerpots containing loamy sand with approximately 3.0% of humus as the substrate. The seeds of the test plants were sown separately for each species.\n(§2) For the pre-emergence treatment, the active ingredients, which had been suspended or emulsified in water, were applied directly after sowing by means of finely distributing nozzles. The containers were irrigated gently to promote germination and growth and subsequently covered with transparent plastic hoods until the test plants had rooted. This cover caused uniform germination of the test plants, unless this had been impaired by the active ingredients. For the post-emergence treatment, the test plants were first grown to a height of 3 to 15 cm, depending on the plant habit, and only then treated with the active ingredients which had been suspended or emulsified in water. For this purpose, the test plants were either sown directly and grown in the same containers, or they were first grown separately as seedlings and transplanted into the test containers a few days prior to treatment.\n(§3) Depending on the species, the test plants were kept at 10-25° C. or 20-35° C., respectively. The test period extended over 2 to 4 weeks. During this time, the test plants were tended, and their response to the individual treatments was evaluated.\n(§4) Evaluation was carried out using a scale from 0 to 100. […]"}, "AVEFA": {"test_system": "AVEFA", "assay": "greenhouse herbicidal activity, post-emergence treatment", "type": "in vivo, Avena fatua", "settings": "post-emergence method, scale 0 to 100", "text": "as §1, §2, §3\nEvaluation was carried out using a scale from 0 to 100. 100 means no emergence of the test plants, or complete destruction of at least the aerial moieties, and 0 means no damage, or normal course of growth. A good herbicidal activity is given at values of 80 to 90 and a very good herbicidal activity is given at values of 90 to 100.\nThe test plants used in the greenhouse experiments were of the following species: Bayer code Scientific name"}, "ALOMY": {"test_system": "ALOMY", "assay": "greenhouse herbicidal activity, post-emergence treatment", "type": "in vivo, Alopercurus myosuroides", "settings": "post-emergence method, scale 0 to 100", "text": "as §1, §2, §3, §4"}, "ABUTH [2]": {"test_system": "ABUTH", "assay": "greenhouse herbicidal activity, post-emergence treatment", "type": "in vivo, Abutilon theophrasti", "settings": "post-emergence method, scale 0 to 100", "text": "as §1, §2, §3, §4"}, "ECHCG [3]": {"test_system": "ECHCG", "assay": "greenhouse herbicidal activity, post-emergence treatment", "type": "in vivo, Echinocloa crus-galli", "settings": "post-emergence method, scale 0 to 100", "text": "as §1, §2, §3, §4"}, "SETFA [4]": {"test_system": "SETFA", "assay": "greenhouse herbicidal activity, pre-emergence treatment", "type": "in vivo, Setaria faberi", "settings": "pre-emergence method, scale 0 to 100", "text": "as §1, §2, §3, §4"}, "APESV": {"test_system": "APESV", "assay": "greenhouse herbicidal activity, pre-emergence treatment", "type": "in vivo, Apera spica-venti", "settings": "pre-emergence method, application rate 1,000 kg/ha; scale 0 to 100", "text": "as §1, §2, §3, §4"}, "AMARE [5]": {"test_system": "AMARE", "assay": "greenhouse herbicidal activity, post-emergence treatment", "type": "in vivo, Amaranthus retroflexus", "settings": "post-emergence method, application rate 0,250 kg/ha; scale 0 to 100", "text": "as §1, §2, §3, §4"}, "ABUTH [6]": {"test_system": "ABUTH", "assay": "greenhouse herbicidal activity, pre-emergence treatment", "type": "in vivo, Abutilon theophrasti", "settings": "pre-emergence method, application rate 0,250 kg/ha; scale 0 to 100", "text": "as §1, §2, §3, §4"}, "AMARE [7]": {"test_system": "AMARE", "assay": "greenhouse herbicidal activity, pre-emergence treatment", "type": "in vivo, Amaranthus retroflexus", "settings": "pre-emergence method, application rate 0,500 kg/ha; scale 0 to 100", "text": "as §1, §2, §3, §4"}, "ECHCG [8]": {"test_system": "ECHCG", "assay": "greenhouse herbicidal activity, pre-emergence treatment", "type": "in vivo, Echinocloa crus-galli", "settings": "pre-emergence method, application rate 0,250 kg/ha; scale 0 to 100", "text": "as §1, §2, §3, §4"}, "SETVI": {"test_system": "SETVI", "assay": "greenhouse herbicidal activity, post-emergence treatment", "type": "in vivo, Setaria viridis", "settings": "post-emergence method, application rate 16.0 g/ha; scale 0 to 100", "text": "as §1, §2, §3, §4"}, "LOLMU": {"test_system": "LOLMU", "assay": "greenhouse herbicidal activity, post-emergence treatment", "type": "in vivo", "settings": "post-emergence method, application rate 16.0 g/ha; scale 0 to 100", "text": "as §1, §2, §3, §4"}}, "data": [{"smiles": "CC1(C(=O)NC2C=CC(C(=O)O)C2)CN(c2cc(F)cc(F)c2)C1=O", "note": "(stereo not shown) [compound 133]", "values": [{"measurement": "herbicidal activity against SETFA", "setting": "SETFA [1]", "result": "very good (a very good herbicidal activity is given at values of 90 to 100)"}, {"measurement": "herbicidal activity against AVEFA", "setting": "AVEFA; application rate 62.5 g/ha", "result": "very good (a very good herbicidal activity is given at values of 90 to 100)"}, {"measurement": "herbicidal activity against ALOMY", "setting": "ALOMY; application rate 62.5 g/ha", "result": "good (A good herbicidal activity is given at values of 80 to 90)"}]}, {"smiles": "COC(=O)CC(C)NC(=O)C1CN(c2cc(Cl)cc(Cl)c2)C1=O", "note": "(stereo not shown) [compound 131]", "values": [{"measurement": "herbicidal activity against ABUTH", "setting": "ABUTH [2]; application rate 1,000 kg/ha", "result": "very good (a very good herbicidal activity is given at values of 90 to 100)"}]}, {"smiles": "COC(=O)CC(C)NC(=O)C1(C)CN(c2cc(Cl)cc(Cl)c2)C1=O", "note": "(stereo not shown) [compound 11]", "values": [{"measurement": "herbicidal activity against ECHCG", "setting": "ECHCG [3]; application rate 1,000 kg/ha", "result": "very good (a very good herbicidal activity is given at values of 90 to 100)"}, {"measurement": "herbicidal activity against SETFA", "setting": "SETFA [4]; application rate 1,000 kg/ha", "result": "very good (a very good herbicidal activity is given at values of 90 to 100)"}, {"measurement": "herbicidal activity against APESV", "setting": "APESV", "result": "very good (a very good herbicidal activity is given at values of 90 to 100)"}]}, {"smiles": "COC(=O)C1C=CC(NC(=O)C2(C)CN(c3ccc(F)c(C#N)c3)C2=O)C1", "note": "(stereo not shown) [compound 147]", "values": [{"measurement": "herbicidal activity against ABUTH", "setting": "ABUTH [2]; application rate 0,250 kg/ha", "result": "very good (a very good herbicidal activity is given at values of 90 to 100)"}]}, {"smiles": "CCC1(C(=O)NC(C)CC(=O)OC)CN(c2cc(Cl)cc(Cl)c2)C1=O", "note": "(stereo not shown) [compound 125]", "values": [{"measurement": "herbicidal activity against AMARE", "setting": "AMARE [5]", "result": "good (A good herbicidal activity is given at values of 80 to 90)"}]}, {"smiles": "COC(=O)CC(C)NC(=O)C1(C)CN(c2cc(C)cc(F)c2)C1=O", "note": "(stereo not shown) [compound 142]", "values": [{"measurement": "herbicidal activity against ABUTH", "setting": "ABUTH [6]", "result": "good (A good herbicidal activity is given at values of 80 to 90)"}, {"measurement": "herbicidal activity against ALOMY", "setting": "ALOMY; application rate 0,250 kg/ha", "result": "good (A good herbicidal activity is given at values of 80 to 90)"}]}, {"smiles": "COC(=O)[C@@H]1C=C[C@H](NC(=O)C2(C)CN(c3cccc(OC(F)(F)C(F)F)c3)C2=O)C1", "note": "(relative stereo) [compound 146]", "values": [{"measurement": "herbicidal activity against AVEFA", "setting": "AVEFA; application rate 0,250 kg/ha", "result": "good (A good herbicidal activity is given at values of 80 to 90)"}]}, {"smiles": "CCOC(=O)CC(C)NC(=O)C1(OC)CN(c2cc(Cl)cc(Cl)c2)C1=O", "note": "(stereo not shown) [compound 13]", "values": [{"measurement": "herbicidal activity against AMARE", "setting": "AMARE [7]", "result": "good (A good herbicidal activity is given at values of 80 to 90)"}]}, {"smiles": "COC(=O)[C@@H]1C=C[C@H](NC(=O)C2(C)CN(c3cc(C)cc(F)c3)C2=O)C1", "note": "(relative stereo) [compound 141]", "values": [{"measurement": "herbicidal activity against ECHCG", "setting": "ECHCG [3]; application rate 0,250 kg/ha", "result": "good (A good herbicidal activity is given at values of 80 to 90)"}, {"measurement": "herbicidal activity against SETFA", "setting": "SETFA [4]; application rate 0,250 kg/ha", "result": "good (A good herbicidal activity is given at values of 80 to 90)"}, {"measurement": "herbicidal activity against ECHCG", "setting": "ECHCG [8]", "result": "good (A good herbicidal activity is given at values of 80 to 90)"}]}, {"smiles": "COC(=O)C1C=CC(NC(=O)C2(C)CN(c3cccc(Cl)c3)C2=O)C1", "note": "(stereo not shown) [compound 136]", "values": [{"measurement": "herbicidal activity against SETVI", "setting": "SETVI", "result": "very good (a very good herbicidal activity is given at values of 90 to 100)"}, {"measurement": "herbicidal activity against AVEFA", "setting": "AVEFA; application rate 16.0 g/ha", "result": "very good (a very good herbicidal activity is given at values of 90 to 100)"}, {"measurement": "herbicidal activity against LOLMU", "setting": "LOLMU", "result": "very good (a very good herbicidal activity is given at values of 90 to 100)"}]}]}
